Legend:
[1] = biological target: T1, human notum pectinacetyltransferase (Homo sapiens, UniProt Q6P988); test: Reporter assay (CellSensor LEF/TCF-bla FreeStyle 293F cells, Wnt3a and notum conditioned media); type: cell-based
T1 construct: made in house; unpurified conditioned medium used
T1 sequence (Q6P988 20-496): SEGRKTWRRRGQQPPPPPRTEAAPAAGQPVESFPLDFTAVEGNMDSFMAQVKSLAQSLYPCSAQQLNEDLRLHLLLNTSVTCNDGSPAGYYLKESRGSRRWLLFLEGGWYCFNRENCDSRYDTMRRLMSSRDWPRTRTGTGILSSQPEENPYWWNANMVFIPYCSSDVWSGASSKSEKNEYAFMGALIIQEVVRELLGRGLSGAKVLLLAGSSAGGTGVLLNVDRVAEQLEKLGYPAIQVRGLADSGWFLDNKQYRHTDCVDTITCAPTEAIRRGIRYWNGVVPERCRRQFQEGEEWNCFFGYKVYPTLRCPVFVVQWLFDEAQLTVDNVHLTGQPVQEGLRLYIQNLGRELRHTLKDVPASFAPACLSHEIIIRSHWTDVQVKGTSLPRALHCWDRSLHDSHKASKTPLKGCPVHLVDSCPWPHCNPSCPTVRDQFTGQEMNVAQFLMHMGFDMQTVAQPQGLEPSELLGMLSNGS
Experimental: Plasmid containing human notum pectinacetyltransferase in pcDNA3.1(+) vector was transfected into HEK (293 cells and clones were selecting by growing in presence of 400 ug/mL of G418. The clone containing highest expression of human notum pectinacetyltransferase in the conditioned media was maintained for all future activity assays. L cells overexpressing and secreting Wnt3a into the conditioned media were purchased from ATCC.
The assay protocol was as follows. […] The cell growth medium consisted of DMEM with 10% Dialyzed FBS, 5 μg/ml Blasticidin (Invitrogen, R210-01), 0.1 mM NEAA, 25 mM HEPES and 1×GPS. Cells were then trypsinized by first rinsing with PBS, followed by addition of 5 mL of trypsin and incubation of plates at room temperature for two minutes. A total of 10 mL of assay media (Opti-MEM, plus 0.5% dialyzed FBS, 0.1 mM NEAA, 1 mM sodium pyruvate, 10 mM HEPES, 1×GPS) was then added per 15 cm plate. Cells were counted and suspended at 0.75 million cells per mL. […] After incubation of cells at 37° C. for 3 hours, 10 μL of 30 mM LiCl in assay medium was added per well, followed by incubation at 37° C. for another 3 hours. […] Ten μL of the Wnt3a/notum pentinacetyltransferase mixture was then transferred from Greiner plates to each well of the 384-well plates containing the CellSensor cells.

[2] = biological target: T1, human notum pectinacetyltransferase; test: Binding assay (OPTS esterase substrate, fluorimetric); type: biochemical
Experimental: Plasmid containing human notum pectinacetyltransferase in pcDNA3.1(+) vector was transfected into HEK (293 cells and clones were selecting by growing in presence of 400 ug/mL of G418. Condition media from these cells was used for the assay.

[3] = given as numeric bound above the legend's highest class
[4] = given as a numeric bound above the legend's range

Row | SMILES | EC50 ([1]; class symbols) [nM] | IC50 ([2]; class symbols) [nM] | other results
1 | NC(=O)c1cc2c(s1)-c1ccccc1SCC2 | < 50 | < 50 | –
2 | CC(=O)N1Cc2cc(C(=O)O)sc2-c2ccccc21 | < 100 | < 2000 | –
3 | COc1ccc2c(c1)-c1sc(C(=O)O)cc1CO2 | – | – | IC50 [2, 3]: > 2000 nM
4 | CN(C)CCNC(=O)c1cc2c(s1)-c1ccccc1CC2 | – | – | IC50 [2, 3]: > 2000 nM
5 | CN(C)c1ccc2c(c1)CCc1cc(C(=O)O)sc1-2 | < 500 | < 2000 | –
6 | NC(=O)c1cc2c(s1)-c1cc(Cl)c(C(F)(F)F)cc1OC2 | < 500 | – | IC50 [2, 4]: > 2000 nM
7 | O=C(NC1CC1)c1cc2c(s1)-c1ccccc1CC2 | < 50 | – | IC50 [2, 4]: > 2000 nM
8 | NC(=O)c1cc2c(s1)-c1ccccc1S(=O)(=O)C2 | < 50 | < 1000 | –
9 | CCC1Cc2cc(C(N)=O)sc2-c2c(F)ccc(F)c21 (stereo not drawn) | < 50 | < 50 | –
10 | CCOC(=O)c1cc2c(s1)-c1cc(F)cc(Cl)c1SC2 | – | – | IC50 ([2]; given as numeric bound above the legend's classes): > 2000 nM
11 | Cc1cc(C)c2c(c1)-c1sc(C(N)=O)cc1CC2 [6,8-dimethyl-4,5-dihydronaphtho[1,2-b]thiophene-2-carboxamide] | < 50 | < 1000 | –
12 | N#Cc1cccc2c1OCc1cc(C(N)=O)sc1-2 | < 50 | < 1000 | –
13 | O=C(O)C1CCCN1C(=O)c1cc2c(s1)-c1ccccc1CC2 (stereo not drawn) | – | – | IC50 [2, 3]: > 2000 nM
14 | N#Cc1ccc2c(c1)OCc1cc(C(N)=O)sc1-2 | – | – | EC50 [1, 4]: > 1000 nM; IC50 [2, 4]: > 2000 nM
15 | COCCNC(=O)c1cc2c(s1)-c1cc(F)ccc1OCC2 | < 500 | – | IC50 [2, 3]: > 2000 nM
16 | CC(C)(C)OC(=O)NCCNC(=O)c1cc2c(s1)-c1ccccc1CC2 | < 50 | < 2000 | –
17 | CCOC(=O)c1cc2c(s1)-c1ccc(Cl)cc1CC2 | – | – | IC50 [2, 3]: > 2000 nM
18 | Cc1cccc2c1-c1sc(C(=O)O)cc1CO2 | – | – | IC50 [2, 4]: > 2000 nM
19 | Cc1cccc2c1OCc1cc(C(=O)O)sc1-2 | < 50 | < 2000 | –
20 | O=C(NCCO)c1cc2c(s1)-c1cccc(F)c1CC2 | < 50 | < 1000 | –
21 | COCCNC(=O)c1cc2c(s1)-c1cccc(F)c1CC2 | < 50 | < 100 | –
22 | COC(=O)c1cc2c(s1)-c1ccccc1CC2 | < 50 | < 1000 | –
23 | N#Cc1ccc2c(c1)CCc1cc(C(=O)O)sc1-2 | < 1000 | – | IC50 [2, 3]: > 2000 nM
24 | CC1Cc2cc(C(N)=O)sc2-c2ccc(Cl)cc21 (stereo not drawn) | < 50 | < 100 | –
25 | Cc1cccc2c1OCc1cc(C(N)=O)sc1-2 | < 50 | < 1000 | –
26 | CCNC(=O)c1cc2c(s1)-c1ccccc1CC2 | – | < 1000 | –
27 | CC1(C)Cc2cc(C(=O)O)sc2-c2c(F)ccc(F)c21 | < 50 | < 1000 | –

Now from value to compound, other results behind:

Row | EC50 ([1]; class symbols) [nM] | IC50 ([2]; class symbols) [nM] | SMILES | other results
28 | < 50 | < 2000 | O=C(O)c1cc2c(s1)-c1cccc(Cl)c1SC2 | –
29 | < 100 | < 1000 | O=C(c1cc2c(s1)-c1cc(F)cc(F)c1SC2)N1CCCC1CO (stereo not drawn) | –
30 | – | < 1000 | N#Cc1cc(F)c2c(c1)-c1sc(C(=O)O)cc1CO2 | –
31 | < 50 | < 50 | COC1CCN(C(=O)c2cc3c(s2)-c2cccc(F)c2CC3)C1 (stereo not drawn) | –
32 | < 50 | < 50 | CC1Cc2cc(C(N)=O)sc2-c2cc(F)cc(F)c21 (stereo not drawn) | –
33 | < 50 | < 50 | CC1Cc2cc(C(N)=O)sc2-c2cc(F)c(F)cc21 (stereo not drawn) | –
34 | < 50 | < 100 | COC1CCN(C(=O)c2cc3c(s2)-c2cc(F)cc(F)c2SC3)C1 (stereo not drawn) | –
35 | < 50 | < 50 | O=C(O)c1cc2c(s1)-c1cc(F)cc(F)c1OC2 | –
36 | < 50 | < 50 | NC(=O)c1cc2c(s1)-c1ccc(F)cc1CC2 | –
37 | < 50 | < 50 | O=C(O)c1cc2c(s1)-c1cc(F)ccc1OCC2 | –
38 | < 100 | – | N#Cc1cc2c(cc1F)OCc1cc(C(=O)O)sc1-2 | IC50 [2, 4]: > 2000 nM
39 | < 50 | < 50 | O=C(O)c1cc2c(s1)-c1ccc(Cl)c(F)c1SC2 | –
40 | < 50 | < 1000 | O=C(O)c1cc2c(s1)-c1cc(Cl)cc(Cl)c1SC2 | –
41 | < 50 | < 100 | NC(=O)c1cc2c(s1)-c1ccc(Cl)c(Cl)c1SC2 | –
42 | < 50 | < 50 | NC(=O)c1cc2c(s1)-c1c(F)cc(F)cc1OC2 [7,9-difluoro-4H-thieno[3,2-c]chromene-2-carboxamide] | –
43 | < 50 | < 1000 | O=C(c1cc2c(s1)-c1cccc(F)c1CC2)N1CCC(F)C1 (stereo not drawn) | –
44 | < 50 | < 50 | Cc1cc(F)c2c(c1)-c1sc(C(N)=O)cc1CC2 | –
45 | < 50 | < 100 | O=C(O)c1cc2c(s1)-c1cc(F)c(F)cc1OC2 | –
46 | < 50 | < 100 | O=C(c1cc2c(s1)-c1ccc(F)c(F)c1CC2)N1CCC(F)C1 (stereo not drawn) | –
